Reference: paper PMC7605213 (Journal of medicinal chemistry, 2020)
Where “and” joins values, the source holds several entries; their conditions need not be identical. Identical values can stand only once. Entries after “also recorded” stand apart in the source; their conditions may differ. Marks after values point to notes of the source that are not given here.

What was measured:
[1] = tested on: P. berghei ANKA 676m1cl1; assay: Assessment of the curative property; type: in vivo, BALB/c female mice
[2] = tested on: P. berghei ANKA strain expressing luciferase; assay: In vivo antimalarial activity: elimination of existing infection; parameters: species or system Swiss-Webster female mice; settings: 25 mg/kg daily p.o., monophosphate salts, treatment from 48 h post infection
[3] = tested on: CQ-resistant Pf Dd2 strain; assay: In vitro antiplasmodial activity, SYBR green I fluorescence, Dd2 strain; type: cell-based, Plasmodium falciparum; settings: for resistance index (RI): RI = Dd2 EC50/3D7 EC50; for activity against the Dd2 strain: aminoquinolines without the arylvinyl group; for EC50: read-out: EC50 against the Dd2 strain, CQ-resistant Pf Dd2, 72 h incubation
[4] = tested on: β-hematin crystal formation; assay: β-Hematin formation inhibition; type: biochemical; settings: 100 μM hemin, 16 h, 37 °C, highest concentration tested 200 μM
[5] = tested on: malaria infection; settings: cited from earlier work
[6] = mouse liver microsomes, 15, 30 and 60 min, tentative assignment
[7] = tested on: synchronized P. falciparum Dd2 cultures; assay: Stage-specific action; type: cell-based, Plasmodium falciparum; settings: for stage-specific action on cell cycle progression: 5 × EC50 (DHA 50 nM, atovaquone 6.6 nM) added at 6, 18, 30, 42 HPI
[8] = tested on: HepG2 cells; assay: In vitro cytotoxicity assay; type: cell-based, human; settings: for selectivity index (SI): SI = HepG2 EC50/Dd2 EC50
[9] = mouse liver microsomes; values reported from the initial study ref 33; cited from earlier work
[10] = tested on: CQ-sensitive 3D7 strain; assay: In vitro antiplasmodial activity, SYBR green I fluorescence, 3D7 strain; type: cell-based, Plasmodium falciparum
[11] = tested on: P. falciparum Dd2 cultures; assay: Transmission electron microscopy of treated parasites; type: cell-based, Plasmodium falciparum; settings: 5 × EC50 for 1.5, 3, 6 or 12 h

In the case of `CN(C)CCNc1cc(/C=C/c2ccc(C(F)(F)F)cc2)nc2ccc(Cl)cc12.O=P(O)(O)O` [24s, (E)-N^1-(6-Chloro-2-(4-(trifluoromethyl)styryl)quinolin-4-yl)-N^2,N^2-dimethylethane-1,2-diamine Monophosphate Salt], the “mice cured (no parasites in blood smears / 100% reduction of parasitemia)” value ([1]; 100 mg/kg p.o. once daily for 4 days) is reported as “no parasites were detected and 5/5”, the body weight change ([1]; 25 and 100 mg/kg p.o.) is reported as “no significant weight loss” and the “tolerability / signs of toxicity” value ([1]; 25 and 100 mg/kg p.o.) is reported as “well tolerated; also recorded: no apparent signs of toxicity”. For the same compound, the “effect on malaria infection (bioluminescence day 7)” value (from here on “effect on malaria infection”) [2] was “full protection and cure”.
With `CN(C)CCNc1cc(/C=C/c2ccncc2)nc2ccc(Cl)cc12` [compound 50, (E)-N^1-(6-Chloro-2-(2-(pyridin-4-yl)vinyl)quinolin-4-yl)-N^2,N^2-dimethylethane-1,2-diamine] the “resistance index (RI)” value [3] was < 1.
In the case of `Fc1ccc(/C=C/c2cc(NCCCCN3CCOCC3)c3cc(Cl)ccc3n2)c(F)c1` [compound 104, (E)-6-Chloro-2-(2,4-difluorostyryl)-N-(4-morpholinobutyl)-quinolin-4-amine], the “fold more active than 103” value ([3]; Dd2) is reported as ~2.5 fold.
In the case of `COc1ccc2nc(/C=C/c3ccncc3)cc(NCCN(C)C)c2c1` [compound 41, (E)-N^1-(6-Methoxy-2-(2-(pyridin-4-yl)vinyl)quinolin-4-yl)-N^2,N^2-dimethylethane-1,2-diamine], the “fold activity difference versus 2-pyridyl isomer 42” value ([3]; Dd2) is reported as “up to 30 fold”.
In the case of `CCN(CC)CCCC(C)Nc1ccnc2cc(Cl)ccc12` (stereo not drawn) [CQ, chloroquine, reference compound], the “inhibition of β-hematin formation” value [4] is listed as “strongly inhibited β-hematin formation” and the “mean survival time (MSD)” value ([5]; 30 mg/kg ref 61) is listed as 24 days.
With `CN(C)CCNc1cc(/C=C/c2ccc(F)cc2)nc2ccc(Cl)cc12` [compound 29, (E)-N^1-(6-Chloro-2-(4-fluorostyryl)quinolin-4-yl)-N^2,N^2-dimethylethane-1,2-diamine] the “inhibition of β-hematin formation” value [4] was “showed inhibitory activity toward β-hematin formation in a concentration-dependent manner”, the “metabolites / metabolic pathway identified by LC–MS” value [6] was “monodemethylated (29-M1), bi-demethylated (29-M2), and oxidized products (29-M3)” and the “stage-specific action on cell cycle progression” value (“stage-specific action” below) [7] was “stage-specific action at the late trophozoite phase”. The “selectivity index (SI)” value [8] was > 1000.
In the case of `CCN(CC)CCCC(C)Nc1cc(/C=C/c2ccc([N+](=O)[O-])cc2)nc2ccc(OC)cc12` (stereo not drawn) [UCF501], the “metabolites / metabolic pathway identified by LC–MS” value [6] is listed as “N-deethylation of the tertiary amine (monodeethyl UCF501 and UCF501-M1), O-demethylation (UCF501-M2), oxidation of styrylquinoline (UCF501-M3), and the reduction of the nitro group”, the “mice cured of malaria infection” value ([5]; 100 mg/kg twice daily p.o. ref 33) is listed as 4/5 and the “% remaining after 60 min” value [9] is listed as 47.8^a %.
In the case of `COc1ccc2nc(C)cc(NCCN(C)C)c2c1` [6a, N^1-(6-Methoxy-2-methylquinolin-4-yl)-N^2,N^2-dimethylethane-1,2-diamine], the “activity against the Dd2 strain” value [3] is reported as “inactive”.
In the case of `Cc1cc(NCCN(C)C)c2cc(Cl)ccc2n1` [6c, N^1-(6-Chloro-2-methylquinolin-4-yl)-N^2,N^2-dimethylethane-1,2-diamine], the “activity against the Dd2 strain” value [3] is reported as “inactive”.
For `CN1CCN(CCNc2cc(/C=C/c3ccc(F)cc3)nc3ccc(Cl)cc23)CC1.O=P(O)(O)O` [86s, (E)-6-Chloro-2-(4-fluorostyryl)-N-(2-(4-methylpiperazin-1-yl)-ethyl)quinolin-4-amine Monophosphate Salt], the “effect on malaria infection” value [2] was “ineffective”.
For `COc1ccc2nc(/C=C/c3ccc(OC)c(OC)c3)cc(NCCN(C)C)c2c1` [compound 13, (E)-N^1-(2-(3,4-Dimethoxystyryl)-6-methoxyquinolin-4-yl)-N^2,N^2-dimethylethane-1,2-diamine], the “resistance index (RI)” value [3] was ≥ 1.5.
In the case of `Fc1ccc(/C=C/c2cc(NCCCCN3CCOCC3)c3cc(Cl)ccc3n2)cc1F` [compound 105, (E)-6-Chloro-2-(3,4-difluorostyryl)-N-(4-morpholinobutyl)-quinolin-4-amine], the “metabolites / metabolic pathway identified by LC–MS” value [6] is reported as “breakage of the morpholine ring” and the “fold more active than 103” value ([3]; Dd2) is reported as ~7 fold.
With `Cc1cc(NCCCCN(C)C)c2cc(Cl)ccc2n1` [6e, N^1-(6-Chloro-2-methylquinolin-4-yl)-N^4,N^4-dimethylbutane-1,4-diamine] the “activity against the Dd2 strain” value [3] was “inactive”.
For `CN(C)CCNc1cc(/C=C/c2ccc(N(C)C)cc2)nc2ccc(Cl)cc12` [compound 28, (E)-N^1-(6-Chloro-2-(4-(dimethylamino)styryl)quinolin-4-yl)-N^2,N^2-dimethylethane-1,2-diamine], the “resistance index (RI)” value [3] was 1.3.
For `CN1CCN(CCNc2cc(/C=C/c3ccc(F)cc3)nc3ccc(Cl)cc23)CC1` [compound 86, (E)-6-Chloro-2-(4-fluorostyryl)-N-(2-(4-methylpiperazin-1-yl)-ethyl)quinolin-4-amine], the “inhibition of β-hematin formation” value [4] was “showed inhibitory activity toward β-hematin formation in a concentration-dependent manner”, the “metabolites / metabolic pathway identified by LC–MS” value [6] was “Demethylated (86-M1) and oxidized products (86-M2)” and the “fold more potent than analogue 95” value ([3]; Dd2) was ~2.5 fold. The “stage-specific action” value [7] was “stage-specific action at the late trophozoite phase”.
In the case of `COc1ccc2nc(/C=C/c3cc(OC)c(OC)c(OC)c3)cc(NCCN(C)C)c2c1` [compound 14, (E)-N^1-(6-Methoxy-2-(3,4,5-trimethoxystyryl)quinolin-4-yl)-N^2,N^2-dimethylethane-1,2-diamine], the “resistance index (RI)” value [3] is reported as ≥ 1.5.
For `C[C@H]1[C@@H](O)O[C@@H]2O[C@@]3(C)CC[C@H]4[C@H](C)CC[C@@H]1[C@@]24OO3` [DHA, dihydroartemisinin, reference compound], the “stage-specific action” value [7] was “inhibition of all stages”.
With `Fc1cnccc1/C=C/c1cc(NCCCCN2CCOCC2)c2cc(Cl)ccc2n1` [compound 109, (E)-6-Chloro-2-(2-(3-fluoropyridin-4-yl)vinyl)-N-(4-morpholinobutyl)quinolin-4-amine] the “fold less active than counterpart 93” value ([3]; Dd2) was ~7.5 fold.
For `Clc1ccc2nc(/C=C/c3ccncc3)cc(NCCCCN3CCOCC3)c2c1` [compound 93, (E)-6-Chloro-N-(4-morpholinobutyl)-2-(2-(pyridin-4-yl)vinyl)-quinolin-4-amine], the “metabolites / metabolic pathway identified by LC–MS” value [6] was “breakage of the morpholine ring”, the “fold improved potency compared with counterpart 82” value ([3]; Dd2) was ~13 fold and the EC50 [3] was ≤ 15 nM.
In the case of `O=C1C(O)=C([C@H]2CC[C@H](c3ccc(Cl)cc3)CC2)C(=O)c2ccccc21` [atovaquone, reference compound], the “stage-specific action” value [7] is reported as “no inhibition in late stages”.
With `CN(C)CCNc1cc(/C=C/c2ccc(F)cc2)nc2ccc(Cl)cc12.O=P(O)(O)O` [29s, (E)-N^1-(6-Chloro-2-(4-fluorostyryl)quinolin-4-yl)-N^2,N^2-dimethylethane-1,2-diamine Monophosphate Salt] the “effect on malaria infection” value [2] was “effectively cleared the parasites”.
In the case of “(E)-4-(6-Chloro-2-(4-isocyanostyryl)quinolin-4-yl)morpholine [compound 64]”, the EC50 [3] is reported as > 1000 nM.
For `Fc1ccc(/C=C/c2cc(NCCCCN3CCOCC3)c3cc(Cl)ccc3n2)cc1` [compound 92, (E)-6-Chloro-2-(4-fluorostyryl)-N-(4-morpholinobutyl)quinolin-4-amine], the “metabolites / metabolic pathway identified by LC–MS” value [6] was “breakage of the morpholine ring”, the “fold increase in inhibitory activity relative to compound 81” value [10] was ~6 fold and the “fold improved potency compared with counterpart 81” value ([3]; Dd2) was ~2 fold. For the same compound, the “fold increase in cytotoxicity relative to compound 81” value ([8]; HepG2) was 4.8 fold and the “selectivity index (SI)” value [8] was > 1000.
With `COc1ccc(/C=C/c2cc(NCCN(C)C)c3cc(F)ccc3n2)cc1OC` [compound 20, (E)-N^1-(2-(3,4-Dimethoxystyryl)-6-fluoroquinolin-4-yl)-N^2,N^2-dimethylethane-1,2-diamine] the “fold improved activity compared to compound 13” value ([3]; Dd2) was “approximately 4.5 fold”.
With `FC(F)(F)c1ccc(/C=C/c2cc(NCCCCN3CCOCC3)c3cc(Cl)ccc3n2)cc1` [compound 98, (E)-6-Chloro-N-(4-morpholinobutyl)-2-(4-(trifluoromethyl)-Styryl)quinolin-4-amine] the “metabolites / metabolic pathway identified by LC–MS” value [6] was “breakage of the morpholine ring”.
For `CN(C)CCNc1cc(/C=C/c2ccc(C(F)(F)F)cc2)nc2ccc(Cl)cc12` [compound 24, (E)-N^1-(6-Chloro-2-(4-(trifluoromethyl)styryl)quinolin-4-yl)-N^2,N^2-dimethylethane-1,2-diamine], the “inhibition of β-hematin formation” value [4] was “very low activity against β-hematin crystal formation; also recorded: weaker inhibitory activity toward β-hematin formation as compared with CQ”, the “metabolites / metabolic pathway identified by LC–MS” value [6] was “N-demethylation was the primary metabolic route” and the “ultrastructural effect (TEM)” value [11] was “appearance of membrane-bound structures within the parasite DV”. The “stage-specific action” value [7] was “blocked when the compound was added at 6, 18, and 30 HPI”, the “effect on cell cycle when added at 42 HPI” value ([7]; 5 × EC50, added at 42 HPI) was “did not affect the schizont maturation or the reinvasion of new merozoites” and the “selectivity index (SI)” value [8] was > 1000.
In the case of `COc1ccc2nc(/C=C/c3ccccc3)cc(NCCN(C)C)c2c1` [compound 8, (E)-N^1-(6-Methoxy-2-styrylquinolin-4-yl)-N^2,N^2-dimethylethane-1,2-diaminei], the “resistance index (RI)” value [3] is reported as ≥ 1.5.
